Reference: patent publication EP2207528B1, “PHARMACEUTICAL COMPOSITION” (STI Pharmaceuticals Ltd., priority 2007, dated 2009)
Converted amounts (≈) assume the structure as drawn. Read-outs that look alike come from different tables or passages of the source.

Experiments:
[1] = Open study, THC-CBD inhaled (pMDI) vs intravenous, plasma pharmacokinetics by GC/MS; type: in vivo, healthy volunteers; settings: for time measurable in plasma after administration: 360 mcg i.h. and i.v. doses; for half-life: human, plasma, 720 ug, read-out: elimination half-lives; for half-life / mean i.h. bioavailability (calculated vs. i.v.) / time of plasma peak post-drug: 720 mcg
Description: In an open study on 12 healthy volunteers a combination of THC and cannabidiol (CBD) was compared after inhalation (i.h.) and intravenously (i.v.) (see Rudolf Brenneisen, Pascale Meyer, Manuela Langos, Christian Steup and Andrew Davies, IACM Congress 2007, 05.10.2007 Cologne).
The liquid aerosol was produced by an in-vitro validated pMDI device, releasing about 45% of the cannabinoid dose, enabling a dosage of about 90 mcg THC and 90 mcg CBD per actuation. The actuator was used from Bespak with an orifice diameter of 0.22mm.
Three subjects (pilot study) received 360 and 9 subjects 720 mcg THC-CBD, corresponding to 4 and 8 actuations, respectively. The addition of a Lidocain HCL to the pulmonal preparation was expected to prevent mucosa irritation and coughing. The pharmacokinetic evaluation was based on plasma profiles aquired by GC/MS. Adverse effects were monitored by visual analog scales (VAS) and measuring vital functions.

[2] = oral; cited from earlier work
[3] = after inhalation of a THC aerosol, Pari Master; cited from earlier work
[4] = Solubility of local anaesthetic in ethanol and HFA 227

Row | Structure (SMILES) | time measurable in plasma after administration [1] [min] | half-life ([1]; inhaled, i.h.) [min] | half-life ([1]; iv, i.v.) [min] | mean i.h. bioavailability (calculated vs. i.v.) ([1]; i.h.) [%] | time of plasma peak post-drug ([1]; i.h.) [min] | time of plasma peak post-drug ([1]; i.v.) [min] | bioavailability [2] | main metabolite ([1]; after i.h.) | THC metabolism ([1]; after i.h., compared with oral (p.o.) administration) | bioavailability [3] [%] | solubility ([4]; ethanol, organic solvent or mixture) [mg/mL] | solubility ([4]; hfa 227, organic solvent or mixture) [mg/mL] | Limit of solubility in Ethanol ([4]; in Ethanol) [mg/mL] | Limit of solubility in HFA 227 ([4]; in HFA 227) [mg/mL]
1 | C=C(C)[C@@H]1CCC(C)=C[C@H]1c1c(O)cc(CCCCC)cc1O [CBD, Cannabidiol] | ≤ 20 | 11 | 24 | 59 ± 47 | 5 | 5 |  |  |  |  |  |  |  | 
2 | CCCCCc1cc(O)c2c(c1)OC(C)(C)[C@@H]1CCC(C)=C[C@@H]21 [THC, delta-9-Tetrahydrocannabinol] | ≤ 20 | 7 | 22 | 55 ± 37 | 5 | 5 | 5-20% | Conjugated 11-carboxy-THC | less pronounced than after oral | 29 |  |  |  | 
3 | CCCCNc1ccc(C(=O)OCCN(C)C)cc1 [Tetracain, Tetracaine Base] |  |  |  |  |  |  |  |  |  |  | 450 (≈ 1700 mM) | 40 (≈ 151 mM) | 450 | 40
